Experiments:
human TLR 8 protein = target: T1, human TLR 8 protein (Homo sapiens, UniProt Q9NR97); assay: TLR8 stimulation determined using HEK-Blue Detection; assay type: cell-based; settings: HEK-Blue hTLR8 cells, 16 hr, relative to Resiquimod or Motolimod maximum
T1 construct: expressed in transfected cells; host or cells: HEK293 (HEK-Blue hTLR8)
T1 sequence (Q9NR97 27-1041): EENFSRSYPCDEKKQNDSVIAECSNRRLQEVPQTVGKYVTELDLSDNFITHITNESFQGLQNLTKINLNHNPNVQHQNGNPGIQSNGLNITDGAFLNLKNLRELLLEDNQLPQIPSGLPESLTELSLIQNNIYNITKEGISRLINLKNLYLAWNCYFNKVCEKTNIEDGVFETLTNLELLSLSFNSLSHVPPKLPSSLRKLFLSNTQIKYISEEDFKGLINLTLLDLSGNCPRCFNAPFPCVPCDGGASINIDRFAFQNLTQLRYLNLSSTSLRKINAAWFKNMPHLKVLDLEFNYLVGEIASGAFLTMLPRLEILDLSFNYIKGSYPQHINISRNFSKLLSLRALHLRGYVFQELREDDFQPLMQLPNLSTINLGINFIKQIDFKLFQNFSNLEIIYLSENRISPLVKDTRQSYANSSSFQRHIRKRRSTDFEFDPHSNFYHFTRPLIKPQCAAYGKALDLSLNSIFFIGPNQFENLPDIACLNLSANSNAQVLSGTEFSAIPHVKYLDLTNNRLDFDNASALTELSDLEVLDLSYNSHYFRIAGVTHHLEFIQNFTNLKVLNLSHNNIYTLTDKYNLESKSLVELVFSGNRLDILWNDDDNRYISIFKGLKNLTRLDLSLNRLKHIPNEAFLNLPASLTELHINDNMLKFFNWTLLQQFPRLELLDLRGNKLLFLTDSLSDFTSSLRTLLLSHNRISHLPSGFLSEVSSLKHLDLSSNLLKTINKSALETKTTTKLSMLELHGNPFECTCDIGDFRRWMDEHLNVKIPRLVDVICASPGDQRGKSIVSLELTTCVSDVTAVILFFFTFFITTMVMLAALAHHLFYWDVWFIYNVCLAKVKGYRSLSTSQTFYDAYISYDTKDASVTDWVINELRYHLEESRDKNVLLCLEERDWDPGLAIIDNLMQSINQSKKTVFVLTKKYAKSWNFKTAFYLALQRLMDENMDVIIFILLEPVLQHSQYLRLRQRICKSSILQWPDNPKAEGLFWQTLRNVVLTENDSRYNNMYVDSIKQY
Source text: TLR8 Stimulation Determined Using HEK-Blue Detection
This assay was designed for studying the stimulation of human TLR 8 protein in HEK-Blue hTLR8 tool cell line by monitoring the activation of NF-1B. HEK-Blue hTLR8 cells were obtained by co-transfection of the hTLR8 gene and an optimized secreted embryonic alkaline phosphatase (SEAP) reporter gene into HEK293 cells. The SEAP reporter gene was placed under the control of the IFN-β minimal promoter fused to five NF-κB and AP-1-binding sites. Stimulation with a TLR 8 ligand activates NF-κB and AP-1 which induce the expression of SEAP. Levels of SEAP can be easily determined with HEK-Blue Detection, a cell culture medium that allows for real-time detection of SEAP. HEK-Blue Detection contains all the nutrients necessary for cell growth and a specific SEAP color substrate. The hydrolysis of the substrate by SEAP produces a purple/blue color that can be measured with a spectrophotometer.
When growing to 50-80% confluency, HEK-Blue hTLR7/8 cells were plated into 96-well plate (costar 3599) at a density of 40000 cells/well. Then compounds were added with serial dilutions over 10 points with a 1 nM-10 uM final concentration range in 0.1% DMSO/HEK-Blue Detection. The plates were then incubated for 16 hr at 37° C. in 5% CO2. The optical density at 620-655 nm was read on BMG PHERAstar FSX instrument. The EC50 for each compound was determined by calculating the percentages of the maximum activation identified with Resiquimod or Motolimod.

human TLR7 = target: T2, human TLR7 (Homo sapiens, UniProt Q9NYK1); assay: TLR7 stimulation determined using HEK-Blue Detection; assay type: cell-based; design: expressed in transfected cells; host or cells: HEK293 (HEK-Blue hTLR7); settings: HEK-Blue hTLR7 cells, HEK-Blue Detection (A77-A124), 16 hr, relative to Resiquimod maximum
T2 sequence (Q9NYK1 27-1049): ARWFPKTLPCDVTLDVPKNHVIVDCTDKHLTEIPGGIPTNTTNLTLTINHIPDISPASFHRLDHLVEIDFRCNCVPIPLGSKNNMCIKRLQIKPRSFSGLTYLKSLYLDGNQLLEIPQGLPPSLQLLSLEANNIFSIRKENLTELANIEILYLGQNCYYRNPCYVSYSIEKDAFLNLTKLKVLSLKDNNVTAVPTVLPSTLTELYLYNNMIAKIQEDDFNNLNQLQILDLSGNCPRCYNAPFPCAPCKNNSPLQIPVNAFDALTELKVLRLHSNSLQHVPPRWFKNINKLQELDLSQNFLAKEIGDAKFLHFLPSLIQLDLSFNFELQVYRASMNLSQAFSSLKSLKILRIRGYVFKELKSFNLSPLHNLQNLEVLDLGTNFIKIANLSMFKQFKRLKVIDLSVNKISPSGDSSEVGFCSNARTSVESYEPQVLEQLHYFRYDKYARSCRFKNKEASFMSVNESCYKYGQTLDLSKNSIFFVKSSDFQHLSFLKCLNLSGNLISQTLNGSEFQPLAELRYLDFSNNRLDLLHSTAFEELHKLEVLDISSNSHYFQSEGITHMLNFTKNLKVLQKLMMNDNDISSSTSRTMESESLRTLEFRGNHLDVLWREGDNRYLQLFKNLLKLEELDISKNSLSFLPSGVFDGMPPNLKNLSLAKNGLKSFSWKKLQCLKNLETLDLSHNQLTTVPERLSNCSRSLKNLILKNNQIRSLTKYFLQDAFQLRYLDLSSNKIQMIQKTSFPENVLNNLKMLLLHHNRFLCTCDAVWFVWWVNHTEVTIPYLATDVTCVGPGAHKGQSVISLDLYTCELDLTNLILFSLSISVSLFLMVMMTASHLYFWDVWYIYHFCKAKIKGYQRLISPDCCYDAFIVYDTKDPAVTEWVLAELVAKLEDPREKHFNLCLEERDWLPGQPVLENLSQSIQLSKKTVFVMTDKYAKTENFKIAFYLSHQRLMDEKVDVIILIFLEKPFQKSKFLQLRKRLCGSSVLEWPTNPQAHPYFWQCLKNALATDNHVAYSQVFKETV
Source text: TLR7 Stimulation Determined Using HEK-Blue Detection
This assay was designed for studying the stimulation of human TLR7 protein in HELK-Blue hTLR7 tool cell line by monitoring the activation of NF-κB. HEK-Blue hTLR7 cells were obtained by co-transfection of the hTLR7 gene and an optimized secreted embryonic alkaline phosphatase (SLAP) reporter gene into HEK293 cells. The SLAP reporter gene was placed under the control of the IFN-β minimal promoter fused to five NF-κB and AP-1-binding sites. Stimulation with a TLR7 ligand activates NF-κB and AP-1 which induce the expression of SLAP. Levels of SLAP can be easily determined with HEK-Blue Detection, a cell culture medium that allows for real-time detection of SLAP. HLK-Blue Detection contains all the nutrients necessary for cell growth and a specific SLAP color substrate. The hydrolysis of the substrate by SLAP produces a purple/blue color that can be measured with a spectrophotometer.
When growing to 50-80%0 confluency, HLK-Blue hTLR7 cells were plated into 96-well plate (costar 3599) at a density of 40000 cells/well. Then compounds were added with serial dilutions over 10 points with a 0.04 nM-10 μM final concentration range in 0.1% DMSO/BLK-Blue Detection. The plates were then incubated for 16 hr at 37° C. in […] and vortex for 30s before measurement. The optical density at 620-655 nm was read on BMG PHLRAstar FSX instrument. The EC50 for each compound was determined by calculating the percentages of the maximum activation identified with Resiquimod.

Structure (SMILES) | EC50 (human TLR 8 protein) [nM] | EC50 (human TLR7) [nM]
CCCC(CCO)Oc1nc(N)c2ncc(Cc3c(F)cc(OCCNC)cc3F)n2n1 (single isomer, unassigned) [Compound A123, (R or S)-3-((4-amino-7-(2,6-difluoro-4-(2-(methylamino)ethoxy)benzyl)imidazo[2,1-f][1,2,4]triazin-2-yl)oxy)hexan-1-ol] | 15 | 0.7
CNCCOc1ccc(Cc2cnc3c(N)nc(OCC4CCCO4)nn23)cn1 (stereo not shown) [Compound A88, 7-((6-(2-(methylamino)ethoxy)pyridin-3-yl)methyl)-2-((tetrahydrofuran-2-yl)methoxy)imidazo[2,1-f][1,2,4]triazin-4-amine] | > 10000 | > 10000
CCCC(CCO)Oc1nc(N)c2ncc(Cc3cc(F)c(OCCNC)c(F)c3)n2n1 (single isomer, unassigned) [Compound A114, (R or S)-3-((4-amino-7-(3,5-difluoro-4-(2-(methylamino)ethoxy)benzyl)imidazo[2,1-f][1,2,4]triazin-2-yl)oxy)hexan-1-ol] | 6.8 | 1
CCCC(CCO)Oc1nc(N)c2ncc(Cc3cccc(OCCNC)c3OC)n2n1 (single isomer, unassigned) [Compound A118, (R or S)-3-((4-amino-7-(2-methoxy-3-(2-(methylamino)ethoxy)benzyl)imidazo[2,1-f][1,2,4]triazin-2-yl)oxy)hexan-1-ol] | 21 | 11
CCCC(C)Oc1nc(N)c2ncc(Cc3cnc(OCCNC)c(C)c3)n2n1 (stereo not shown) [Compound A78, 7-((5-methyl-6-(2-(methylamino)ethoxy)pyridin-3-yl)methyl)-2-(pentan-2-yloxy)imidazo[2,1-f][1,2,4]triazin-4-amine] | 1140 | 23
CCCC(CCO)Oc1nc(N)c2ncc(Cc3cc(F)c(OCCNC)cc3F)n2n1 (single isomer, unassigned) [Compound A112, (R or S)-3-((4-amino-7-(2,5-difluoro-4-(2-(methylamino)ethoxy)benzyl)imidazo[2,1-f][1,2,4]triazin-2-yl)oxy)hexan-1-ol] | 9 | 0.93
CCCC(CC)Oc1nc(N)c2ncc(Cc3ccc(OCCNC)nc3)n2n1 (stereo not shown) [Compound A84, 2-(hexan-3-yloxy)-7-((6-(2-(methylamino)ethoxy)pyridin-3-yl)methyl)imidazo[2,1-f][1,2,4]triazin-4-amine] | 192 | 6.9
CNCCOc1ccc(Cc2cnc3c(N)nc(OCC4CCOC4)nn23)cn1 (stereo not shown) [Compound A80, 7-((6-(2-(methylamino)ethoxy)pyridin-3-yl)methyl)-2-((tetrahydrofuran-3-yl)methoxy)imidazo[2,1-f][1,2,4]triazin-4-amine] | > 10000 | 446

Further lines, results first:

EC50 (human TLR 8 protein) [nM] | EC50 (human TLR7) [nM] | Structure (SMILES)
13.5 | 1.7 | CCCC(CCO)Oc1nc(N)c2ncc(Cc3ccc(OCCNC)cc3)n2n1 (single isomer, unassigned) [Compound A93, (S or R) 3-((4-amino-7-(4-(2-(methylamino)ethoxy)benzyl)imidazo[2,1-f][1,2,4]triazin-2-yl)oxy)hexan-1-ol]
69 | 10 | CCCC(CCO)Oc1nc(N)c2ncc(Cc3ccc(OCCNC)nc3)n2n1 (stereo not shown) [Compound A79, 3-((4-amino-7-((6-(2-(methylamino)ethoxy)pyridin-3 yl)methyl)imidazo[2,1-f][1,2,4]triazin-2-yl)oxy)hexan-1-ol]
6250 | 310 | CCCC(CCO)Oc1nc(N)c2ncc(Cc3ccc(OCCNC)nc3)n2n1 (single isomer, unassigned) [Compound A81, (R or S) 3-((4-amino-7-((6-(2-(methylamino)ethoxy)pyridin-3-yl)methyl)imidazo[2,1-f][1,2,4]triazin-2-yl)oxy)hexan-1-ol]
19 | 0.63 | CCCC(CCO)Oc1nc(N)c2ncc(Cc3ccc(OCCNC)cc3OCC)n2n1 (single isomer, unassigned) [Compound A121, (R or S)-3-((4-amino-7-(2-ethoxy-4-(2-(methylamino)ethoxy)benzyl)imidazo[2,1-f][1,2,4]triazin-2-yl)oxy)hexan-1-ol]
16 | 1.3 | CCCC(CCO)Oc1nc(N)c2ncc(Cc3ccc(OCCNC)cc3C)n2n1 (single isomer, unassigned) [Compound A107, (R or S)-3-((4-amino-7-(2-methyl-4-(2-(methylamino)ethoxy)benzyl)imidazo[2,1-f][1,2,4]triazin-2-yl)oxy)hexan-1-ol]
65 | 4 | CCCC(CCO)Oc1nc(N)c2ncc(Cc3ccc(CCCNC)cc3)n2n1 (single isomer, unassigned) [Compound A110, (R or S)-3-((4-amino-7-(4-(3-(methylamino)propyl)benzyl)imidazo[2,1-f][1,2,4]triazin-2-yl)oxy)hexan-1-ol]

From US12281119B2, “Imidazo[2,1-f][1,2,4]triazin-4-amine derivatives as TLR7 agonist” (BEIGENE, LTD., priority 2019, dated 2025)
